Patent publication US7098248B2, “Beta-adrenergic blockade reversal of catabolism after severe burn” (Research Development Foundation, priority 2001, dated 2006)
“Also recorded” adds a separate entry of the source.

Experiments:
[1] = system: severely burned (>40% total body surface area) children; assay: Energy expenditure by metabolic cart (indirect calorimetry); type: in vivo, human
Protocol: Between midnight and 5 AM on the day of study, oxygen consumption (VO2), carbon dioxide production (VCO2), respiratory quotient (RQ) and resting energy expenditure (REE) were determined with a metabolic cart (Sensormedics Model 2900; Yorba Linda, Calif.) at 30° C. ambient room temperature during continuous feeding.

[2] = system: severely burned (>40% total body surface area) children; assay: Clinical safety: sepsis, held doses, complications during hospitalization; type: in vivo, human
[3] = system: severely burned (>40% total body surface area) children; assay: Vital signs (hourly heart rate, blood pressure, temperature)
[4] = system: severely burned (>40% total body surface area) children; assay: Serum glucose, potassium and hormone values; conditions: result in words
[5] = system: severely burned (>40% total body surface area) children; assay: Lean body mass by dual image x-ray absorptiometry (DEXA); type: in vivo, human
Protocol: (§1) Two weeks after treatment was started, a second series of metabolic and protein kinetic studies was performed. Subjects who received at least a four-week treatment course underwent a second whole-body potassium measurement. At discharge, subjects underwent body composition scanning by a dual image x-ray absorptiometry.
Total body lean mass and fat mass were measured by dual image x-ray absorptometry. A Hologic model QDR-4500W DEXA (Hologic Inc, Waltham, Mass.) with the pediatric software package was used to measure body composition.

[6] = system: severely burned (>40% total body surface area) children; assay: Fat-free mass by whole body potassium 40 counting; type: in vivo, human
Protocol: as §1
Determination of Fat-Free Mass using Potassium 40 Whole Body Counting. Fat-Free Mass was determined by Whole Body Potassium 40 (^40K) scintillation counting in a heavily shielded low background noise counting room, a 32 NaI detector array, and computed data analysis which has been validated for use in children.^20,21 The counting precision of the instrument used is <1.5%, which was calibrated daily using BOMAB Phantoms with simulated fat overlays. All studies were done after feedings and IV fluids were discontinued to minimize exogenous potassium contamination.

[7] = system: severely burned (>40% total body surface area) children; assay: Stable isotope cross-leg skeletal muscle protein kinetic study
[8] = between metabolic studies, result in words
[9] = result in words, listed as propranolol
[10] = two weeks of oral propranolol, mean ± SEM
[11] = after treatment, n = 11, model derived, mean, listed as heads read shifted one entry

CC(C)NCC(O)COc1cccc2ccccc12 (stereo not drawn) [Propranolol, propranolol]
Carbon dioxide production vs non-treated group [1, 8]: significant decreases
Oxygen consumption vs non-treated group [1, 8]: significant decreases
Respiratory quotient [1, 8]: did not change
Resting energy expenditure vs baseline / non-treated group [1, 9]: lower than baseline and lower than those of the control group; also recorded: significant decreases
Carbon dioxide production, change from baseline [1, 10]: −64 ± 22
Oxygen consumption, change from baseline [1, 10]: −56 ± 22
Respiratory quotient, change from baseline [1, 10]: −0.1 ± 0.1
Resting energy expenditure, change from baseline [1, 10]: −422 ± 197
Subjects who developed sepsis ([2]; during hospitalization, p=1.0 vs controls): 4 of 13
Subjects in whom one or more doses were held temporarily for a mean arterial pressure between 60 and 65 ([2]; during treatment course): 3 of 13
Asthma ([2]; result in words): No asthma occurred
Evidence of tissue hypoperfusion (wound conversion to full thickness, metabolic acidosis) ([2]; result in words): No other direct or indirect evidence of tissue hypoperfusion
Negative clinical sequela resulting from β-blockade ([2]; result in words): No negative clinical sequela
Heart rates vs baseline and control group ([3]; during beta blockade, p<0.05, result in words): lower than baseline and lower than those of the control group
Decrease in heart rate compared with patient's own baseline and with non-treated controls ([3]; oral propranolol titrated, p=0.03): 20%
Blood pressure vs non-treated group / with treatment [3, 9]: not statistically different; also recorded: no significant decrease
Diastolic blood pressure, change from baseline [3, 10]: −5 ± 5 mm/mHg
Mean arterial pressure, change from baseline [3, 10]: 1 ± 8 mHg
Systolic blood pressure, change from baseline [3, 10]: −4 ± 5 mHg
Serum potassium values vs non-treated group [4]: higher
Improvement of lean body mass percentage vs non-treated control group ([5]; at discharge, p=0.01): ~6%
Lean body mass percentage ([5]; at full healing and discharge, 9 treated subjects): 79.1±1.2%
Loss of fat free mass ([6]; 4 weeks of treatment, twelve propranolol subjects, p=0.003 vs controls): 1%
Fat free mass by whole body potassium counter ([6]; four weeks of treatment, result in words): did not change; also recorded: preserved
FSR, fractional synthetic rate, rate of incorporation of tracer into muscle over time ([7]; after treatment, n = 11, mean): 0.34 %/hr
FM,A, inward transport into myocyte [7, 11]: 0.264 μmol Phe/min/100 ml leg
FM,O, muscle protein breakdown [7, 11]: 0.287 μmol Phe/min/100 ml leg
FO,M, muscle protein synthesis [7, 11]: 0.337 μmol Phe/min/100 ml leg
FV,A, A→V shunt past muscle [7, 11]: 0.821 μmol Phe/min/100 ml leg
FV,M, outward transport from myocyte [7, 11]: 0.214 μmol Phe/min/100 ml leg
Fin, amino acid inflow into leg via femoral artery [7, 11]: 1.085 μmol Phe/min/100 ml leg
Fout, amino acid outflow from leg via femoral vein [7, 11]: 1.034 μmol Phe/min/100 ml leg
Rd, rate of disappearance, approximating protein synthesis [7, 11]: 0.157 μmol Phe/min/100 ml leg
Protein synthesis measured by direct incorporation of the tracer ([7]; long-term β-blockade, result in words): increased
Muscle protein net balance from baseline and vs non-treated controls ([7]; result in words): improved
Muscle protein net balance from baseline and vs non-treated controls [7, 9]: achieved anabolic levels
